Results taken from patent publication US20260365677A1, “NEW CONTRAST AGENTS FOR USE IN DIAGNOSTIC IMAGING” (Bayer Aktiengesellschaft, priority 2022, published 2026).

Columns and labels:
[1] = 1.5 T, 37 °C, from Rohrer et al., cited from earlier work; for r1 plasma: bovine plasma instead of human plasma
[2] = Complex stability (transmetallation) with Zn2+ in phosphate buffer; format: physicochemical; conditions: over 72 hours, 2.5 mM Zn^2+, 26 mM phosphate buffer, 37 °C
Protocol: The used method is described elsewhere (Laurent S et al., Stability of MRI paramagnetic contrast media: a proton relaxometric protocol for transmetallation assessment. Invest Radiol. 2001 February; 36(2):115-22). […] If test compounds are instable under these conditions, transmetallation during this test would lead to the formation of the Zn^2+ complex of the test item, while Gd^3+ is released and precipitated as highly insoluble GdPO4.
After 3d of incubation T1 relaxation time was observed.

focal liver lesions = conditions: patients with healthy liver or oncologic/cirrhotic liver patients; cited from earlier work
[3] = system: organic anion-transporting polypeptides (OATP1B1, OATP1B3); conditions: via OATP1B1, OATP1B3; cited from earlier work
[4] = system: multidrug resistance-associated protein 2 (MRP2); conditions: via MRP2 (cMOAT); cited from earlier work
plasma proteins = conditions: cited from earlier work
[5] = Partition coefficient (log P butanol/buffer); format: physicochemical; conditions: 50 mM Tris-HCl, pH 7.4, 10 μM, room temperature
Protocol: The partition coefficient P (log P=log(Cbutanol/Cbuffer)) was determined in buffered aqueous solution (10 μM of compound in 0.5 mL 50 mM Tris-HCl saturated with Butanol, pH 7.4) and 1-butanol 1+1 and the mixture was shaken for 2 h at room temperature (n=3). The Gd-concentrations in each phase. CObutano, and Cbuffer were measured by ICP-MS (The Chemistry of Contrast Agents in Medical Magnetic Resonance Imaging” 2nd Ed. Merbach A S, Helm L, Toth E, eds. Hoboken, NJ: Wiley 2013).

[6] = Exploratory water solubility in 10 mM Tris-HCl buffer, pH 7.4; format: physicochemical; conditions: aqueous buffer (10 mM Tris-HCl), 20 °C
Protocol: The exploratory water solubility of the compounds is determined at room temperature (20 °C) in 0.5 mL buffer solution (10 mM Tris-HCl, pH 7.4) in the microcentrifuge tubes (Eppendorf, 2.0 mL safe-lock caps). The solid compounds were added stepwise to the buffer solution. More substance is added once all the suspended material is dissolved until an equilibrium between undissolved and dissolved substance is reached. The suspension was mixed using a shaker (Heidolph Reax 2000) and treated 5 min in an ultrasound bath (Bandelin, Sonorex Super RK255H). The Gadolinium concentration of the test substance in the clear solution is measured by ICP-MS.

dentate nucleus = conditions: after repeated administration; cited from earlier work
[7] = of the administered dose; cited from earlier work

| Compound | r1 plasma [1] [L/mmol/s] | r1 water [1] [L/mmol/s] | Transmetallation stability (in words) [2] | detection and identification of focal liver lesions by liver MRI (focal liver lesions) | uptake by hepatocytes [3] | excretion into the bile canaliculi [4] | protein binding (plasma proteins) | Log P [5] | Solubility [6] [mM] | signal intensity in the dentate nucleus (dentate nucleus) | secretion/excretion into the bile [7] |
| --- | --- | --- | --- | --- | --- | --- | --- | --- | --- | --- | --- |
| O=C([O-])CN1CCN(CC(=O)[O-])CCN([C@H](CO)[C@H](O)CO)CCN(CC(=O)[O-])CC1.[Gd+3] (racemic) [RC3, gadobutrol] | 5.2 | 3.3 | stable |  |  |  |  |  |  |  |  |
| CCOc1ccc(CC(CN(CCN(CC(=O)[O-])CC(=O)[O-])CC(=O)[O-])N(CC(=O)[O-])CC(=O)[O-])cc1.[Gd+3].[Na+].[Na+] (centres unmarked) [RC1, gadoxetate disodium] | 6.9 | 4.7 |  | able to detect and identify focal liver lesions with high specificity and sensitivity | mainly taken up by hepatocytes via organic anion-transporting polypeptides (OATP1B1, OATP1B3) | primarily excreted into the bile canaliculi via the multidrug resistance-associated protein 2 | approximately 10% | −2.12 | >250 | increased signal intensity in the dentate nucleus | up to 50% |
| O=C([O-])CN(CCN(CC(=O)[O-])CC(=O)[O-])CCN(CC(=O)[O-])C(COCc1ccccc1)C(=O)[O-].[Gd+3].[H+].[H+] (centres unmarked) [RC2, gadobenic acid] | 6.3 | 4.0 |  |  |  |  | approximately 10% | −2.07 |  |  |  |
